Test results from patent US8173693B2, “Benzenesulfonamide derivatives and pharmaceutical composition thereof” (Purzer Pharmaceutical Co., Ltd., priority 2010, dated 2012).
pIC50: −log10 of the molar value. Several values for one entry are separate records, joined by “and”; a condition that tells them apart may be missing. Equal values may be shown once.

Columns and labels:
[1] = tested on: human nasopharyngeal carcinoma KB cells; experiment: MTT assay; assay type: cell-based; details: Homo sapiens, KB; MTT assay, 72 hr
Description: (§1) Human Bladder Cancer TSGH cells, Human hepatoblastoma HepG2 cells, Human colorectal adenocarcinoma HT-29 cells, human nasopharyngeal carcinoma KB cells, Human gastric adenocarcinoma AGS cells, Human breast carcinoma MCF-7 cells, lung carcinoma A549 cells, and Human prostate carcinoma PC-3 cells were used in the preliminary cytotoxicity assays of the benzenesulfonamide derivatives of the present invention, and the inhibition activity against the tumor cells was evaluated.
(§2) All cell lines were maintained in RPMI 1640 supplied with 10% fetal bovine serum and maintained in a humidified chamber at 37° C. containing 5% CO2. Then, all cell lines were treated with compounds for 72 hr and subsequently incubated with 0.4 mg/mL of MTT at 37° C. for 2 hr. The medium was removed, and DMSO was added to dissolve MTT precipitate. Cell proliferation was determined by measuring the optical density at 540 nm using a Thermomax microplate reader (Molecular Devices, Sunnyvale, Calif.), and the IC50 values of the benzenesulfonamide derivatives of the present invention were calculated.

[2] = tested on: Human colorectal adenocarcinoma HT-29 cells; experiment: MTT assay; assay type: cell-based; details: 72 hr
Description: as §1, §2

[3] = tested on: Human Bladder Cancer TSGH cells; experiment: MTT assay; assay type: cell-based; details: 72 hr
Description: as §1, §2

[4] = tested on: Human hepatoblastoma HepG2 cells; experiment: MTT assay; assay type: cell-based; details: 72 hr, read-out: IC50 HepaG2
Description: as §1, §2

[5] = tested on: tumor cells; experiment: Preliminary cytotoxicity assays (MTT, SRB), tumor cell panel; assay type: cell-based; details: comparison over Tables 1-4
Description: as §1, §2
All cell lines were maintained in RPMI 1640 supplied with 10% fetal bovine serum into 96-well microtiter plates and maintained in a humidified chamber at 37° C. containing 5% CO2. After 24 hr, cell lines in partial wells were fixed in situ with 10% trichloroacetic acid (TCA) to represent a measurement at the time of drug addition (T0). Then, cell lines in other wells were incubated with the benzenesulfonamide derivatives of the present invention for an additional 48 hr, and fixed in situ with 10% TCA to represent a measurement at the time of stopping reaction (Tx). […] Cell proliferation was determined by measuring the optical density at 515 nm using a Thermomax microplate reader (Molecular Devices, Sunnyvale, Calif.). The half-inhibition concention (GI50) of the benzenesulfonamide derivatives of the present invention was obtained from the detected optical density.

[6] = background statement; cited from earlier work
[7] = tested on: 4T1-Luc cells; experiment: In vivo evaluation, short-time treatment, mice implanted with 4T1-Luc cells; details: short-time treatment, GM119 25 mg/kg, Taxol 10 mg/kg
Description: GM119 (25 mg/kg) was applied to a mouse implanted with 4T1-Luc cells for a short time, and then Taxol (10 mg/kg) was applied thereto to observe the effect of GM119 on the 4T1-Luc cells.
(§3) A suspension of 4T1-Luc cells in matrigel was injected into the breast adipocyte to obtain mice implanted with luciferase tumor cells. […] When the size of the tumor cells was achieved to 200-500 mm^3, the mice were divided into 2 groups, and the number of the mice in each group is ≧5. Then, 0 or 25 mg/kg of GM119 was abdominal-injected into the mice for 5 days, wherein GM119 was dissolved in cremophor, and the volume of injection to each mouse is 50 μl. Then, 0 or 10 mg/kg of Taxol was abdominal-injected into the mice for every 2 days until death of the mice. The weight and the number of the mice were recorded every day to analyze the change on the weight and the survival time of the mice. After the drugs were applied to the mice, the size of the tumor cells in the mice was evaluated with bioluminescence every two days.

[8] = tested on: 4T1-Luc cells; experiment: In vivo evaluation, long-time treatment, mice implanted with 4T1-Luc cells
Description: GM119 (25 mg/kg) and Taxol (10 mg/kg) were simultaneously applied to a mouse implanted with 4T1-Luc cells for a long time to observe the effect of GM119 on the 4T1-Luc cells.
as §3, with “Then, 0/0, 0/25, 10/[…],” for “Then, 0”, “or 10/0” for “or 25”, “of Taxol/GM119” for “of GM119”, “mice every two days until death of the mice,” for “mice for 5 days,”, “GM119 and Taxol were” for “GM119 was”, “μl.” for “μl. Then, 0 or 10 mg/kg of Taxol was abdominal-injected into the mice for every 2 days until death of the mice.”

[9] = tested on: Human hepatoblastoma HepG2 cells; experiment: SRB assay; assay type: cell-based; details: 48 hr
[10] = tested on: Human breast carcinoma MCF-7 cells; experiment: SRB assay; assay type: cell-based; details: MCF7, 48 hr
[11] = tested on: Human colorectal adenocarcinoma HT-29 cells; experiment: SRB assay; assay type: cell-based; details: 48 hr
Description: as §1
(§4) All cell lines were maintained in RPMI 1640 supplied with 10% fetal bovine serum into 96-well microtiter plates and maintained in a humidified chamber at 37° C. containing 5% CO2. After 24 hr, cell lines in partial wells were fixed in situ with 10% trichloroacetic acid (TCA) to represent a measurement at the time of drug addition (T0). Then, cell lines in other wells were incubated with the benzenesulfonamide derivatives of the present invention for an additional 48 hr, and fixed in situ with 10% TCA to represent a measurement at the time of stopping reaction (Tx). After rinsing the plates with PBS and air-drying, 0.4% sulforhodamine B solution (weight per volume in 1% acetic acid) was added to each well and the plates were incubated for 10 min at room temperature. Unbound sulforhodamine B was removed with 1% acetic acid and the plates were air-dried. Cells bound with sulforhodamine B was subsequently solubilized with 10 mM Tris base (Trizma; Sigma). Cell proliferation was determined by measuring the optical density at 515 nm using a Thermomax microplate reader (Molecular Devices, Sunnyvale, Calif.). The half-inhibition concention (GI50) of the benzenesulfonamide derivatives of the present invention was obtained from the detected optical density.

[12] = tested on: Human gastric adenocarcinoma AGS cells; experiment: SRB assay; assay type: cell-based; details: 48 hr
Description: as §1, §4

[13] = tested on: Human hepatoblastoma HepG2 cells; experiment: SRB assay; assay type: cell-based; details: 48 hr; remark: listed apart in the source
Description: as §1, §4

[14] = tested on: Human prostate carcinoma PC-3 cells; experiment: SRB assay; assay type: cell-based; details: Homo sapiens; for GI50: PC-3, 48 h; for pIC50: PC-3, 48 hr
Description: as §1, §4

[15] = tested on: lung carcinoma A549 cells; experiment: SRB assay; assay type: cell-based; details: Homo sapiens, 48 hr
Description: as §1, §4

[16] = tested on: Human breast carcinoma MCF-7 cells; experiment: SRB assay; assay type: cell-based; details: MCF7, 48 hr; remark: listed apart in the source
Description: as §1, §4

[17] = tested on: Human colorectal adenocarcinoma HT-29 cells; experiment: SRB assay; assay type: cell-based; details: 48 hr; remark: listed apart in the source
[18] = tested on: lung carcinoma A549 cells; experiment: SRB assay; assay type: cell-based; details: Homo sapiens, 48 hr; remark: listed apart in the source
[19] = tested on: Human gastric adenocarcinoma AGS cells; experiment: SRB assay; assay type: cell-based; details: 48 hr; remark: listed apart in the source
[20] = tested on: colon 38 cells; details: Owa et al., J. Med. Chem. 1999, 42, 3789-3799; read-out: IC50 against colon 38 cells; cited from earlier work
[21] = tested on: KB cells; details: Owa et al., J. Med. Chem. 1999, 42, 3789-3799; read-out: IC50 against KB cells; cited from earlier work
[22] = tested on: P388 murine leukemia cells; details: Owa et al., J. Med. Chem. 1999, 42, 3789-3799; read-out: IC50 against P388 murine leukemia cells; cited from earlier work

| melting point | pIC50 [9] | pIC50 [10] | GI50 [11] | GI50 [12] | GI50 [13] | GI50 [14] | pIC50 [14] | GI50 [15] | GI50 [16] | pIC50 [17] | pIC50 [18] | pIC50 [19] | Structure (SMILES) | also measured |
| --- | --- | --- | --- | --- | --- | --- | --- | --- | --- | --- | --- | --- | --- | --- |
| – | – | – | – | – | – | – | – | – | – | – | – | – | COc1ccc(S(=O)(=O)Nc2cccnc2Nc2ccc(O)cc2)cc1 [Compound E7010] | anti-cancer activity in mice [6]: shows great effect |
| – | – | – | – | – | – | – | – | – | – | – | – | – | CC(=O)O[C@H]1C(=O)[C@@]2(C)[C@H]([C@H](OC(=O)c3ccccc3)[C@]3(O)C[C@H](OC(=O)[C@H](O)[C@@H](NC(=O)c4ccccc4)c4ccccc4)C(C)=C1C3(C)C)[C@]1(OC(C)=O)CO[C@@H]1C[C@@H]2O [Taxol, reference compound] | growth of the tumor cells (bioluminescence) [7]: the growth of the tumor cells can be inhibited; survival of the mice ([8]; long time: Taxol 10 mg/kg and/or GM119 25 mg/kg abdominal-injected every two days until death, FIG. 3): the survival of the mice can be increased; growth of the tumor cells (bioluminescence) ([8]; long-time treatment): the growth of the tumor cells can be inhibited |
| 192 to 194 °C | < 5.00 | < 5.00 | 5.6 µM | 7.8 µM | > 10 µM | > 10 µM | < 5.00 | > 10 µM | 7.8 µM | 5.00 | < 5.00 | < 5.00 | Cc1ccc(C)c2c1[nH]c1c(N(C)S(=O)(=O)c3cccc(C(F)(F)F)c3)cccc12 [Compound 15j, N-(5,8-Dimethyl-9H-carbazol-1-yl)-N-methyl-3-trifluoromethylbenzenesulfonamide] | – |
| 88 to 89 °C | < 5.00 | < 5.00 | > 10 µM | > 10 µM | > 10 µM | > 10 µM | < 5.00 | > 10 µM | > 10 µM | < 5.00 | < 5.00 | < 5.00 | COc1ccc(S(=O)(=O)N(C)c2cccc3c2[nH]c2c(C)ccc(C)c23)cc1 [Compound 15c, N-(5,8-Dimethyl-9H-carbazol-1-yl)-N-methyl-4-methoxybenzenesulfonamide] | – |
| 60 to 62 °C | 5.72 | < 5.00 | 0.3 µM | 0.6 µM | 0.8 µM | 3.5 µM | 5.07 | 5.9 µM | 6.1 µM | 6.10 | 5.00 | < 5.00 | CCCN(c1cccc2c1[nH]c1c(C)ccc(C)c12)S(=O)(=O)c1ccc(OC)cc1 [Compound 17c, N-(5,8-Dimethyl-9H-carbazol-1-yl)-N-propyl-4-methoxybenzenesulfonamide] | – |
| – | – | – | – | – | – | – | – | – | – | – | – | – | NS(=O)(=O)c1ccc(S(=O)(=O)Nc2cccc3c(Cl)c[nH]c23)cc1 [Compound E7070] | pIC50 [20]: 6.59 and 6.52; pIC50 [21]: 4.94; pIC50 [22]: 5.92 |
| 217 to 218 °C | < 5.00 | < 5.00 | > 10 µM | > 10 µM | > 10 µM | > 10 µM | < 5.00 | > 10 µM | > 10 µM | < 5.00 | < 5.00 | < 5.00 | Cc1ccc(C)c2c1[nH]c1c(NS(=O)(=O)c3cccc(C(F)(F)F)c3)cccc12 [Compound 6j, N-(5,8-Dimethyl-9H-carbazol-1-yl)-3-trifluoromethylbenzenesulfonamide] | – |
| 188 to 190 °C | < 5.00 | < 5.00 | > 10 µM | > 10 µM | > 10 µM | > 10 µM | < 5.00 | > 10 µM | > 10 µM | < 5.00 | < 5.00 | < 5.00 | O=S(=O)(Nc1cccc2c1[nH]c1ccccc12)c1cccc(C(F)(F)F)c1 [Compound 21b, N-(9H-Carbazol-1-yl)-3-trifluoromethylbenzenesulfonamide] | – |
| 222 to 224 °C | 5.80 | < 5.00 | 0.2 µM | 0.5 µM | 0.5 µM | 4 µM | 5.03 | 7.8 µM | 9.5 µM | 6.15 | < 5.00 | < 5.00 | COc1ccc(S(=O)(=O)N(c2cccc3c2[nH]c2c(C)ccc(C)c23)C(C)C)cc1 [Compound 18c, N-(5,8-Dimethyl-9H-carbazol-1-yl)-N-isopropyl-4-methoxybenzenesulfonamide] | – |
| 179 to 181 °C | 5.80 | < 5.00 | 0.3 µM | 7.5 µM | 0.7 µM | 7 µM | < 5.00 | 8.1 µM | > 10 µM | 5.41 | < 5.00 | < 5.00 | Cc1ccc(C)c2c1[nH]c1c(N(C)S(=O)(=O)c3ccc(Cl)s3)cccc12 [Compound 15k, 5-Chloro-thiophene-2-sulfonic acid (5,8-dimethyl-9H-carbazol-1-yl)-methyl-amide] | – |

| Structure (SMILES) | melting point | pIC50 [9] | pIC50 [10] | GI50 [11] | GI50 [12] | GI50 [13] | GI50 [14] | pIC50 [14] | GI50 [15] | GI50 [16] | pIC50 [17] | pIC50 [18] | pIC50 [19] | also measured |
| --- | --- | --- | --- | --- | --- | --- | --- | --- | --- | --- | --- | --- | --- | --- |
| O=S(=O)(Nc1cccc2c(/N=N/c3ccccc3)c[nH]c12)c1ccc(Cl)cc1 [Compound 7c, 4-Chloro-N-(3-phenylazo-1H-indol-7-yl)benzenesulfonamide] | 110 to 111 °C | – | – | – | – | – | – | – | – | – | – | – | – | pIC50 [1]: 4.82; pIC50 [2]: 4.86; pIC50 [3]: 4.85; pIC50 [4]: 4.55; inhibitory activity against the tumor cells (in words) [5]: higher than that of the compound 5d |
| O=[N+]([O-])c1ccc(/N=N/c2c[nH]c3c(NS(=O)(=O)c4ccc(Cl)cc4)cccc23)cc1 [Compound 7a, 4-Chloro-N-[3-(4-nitrophenylazo)-1H-indol-7-yl]benzenesulfonamide] | 217 to 218 °C | – | – | – | – | – | – | – | – | – | – | – | – | pIC50 [1]: 5.35; pIC50 [2]: 5.23; pIC50 [3]: 5.44; pIC50 [4]: 5.04; inhibitory activity against the tumor cells (in words) [5]: higher than that of the compound 5d |
